Assay results from patent US10723741B1, “DNA polymerase IIIC inhibitors and use thereof” (Acurx Pharmaceuticals, LLC, priority 2018, dated 2020).

Columns and labels:
Assay type in all cases: cell-based
[1] = test system: Staphylococcus aureus NRS384 (MRSA); assay: Broth microdilution MIC, S. aureus NRS384 (MRSA); conditions: Staphylococcus aureus; broth microdilution, 37° C., 20 hours; read-out: MIC NRS 384 (MRSA)
Excerpt: (§1) Bacteria tested are Staphylococcus aureus NRS384 (a methicillin-resistant Staphylococcus aureus, MRSA), Staphylococcus aureus ATCC 29213 (a methicillin-sensitive Staphylococcus aureus, MSSA), Streptococcus pneumoniae ATCC 49619, Enterococcus faecalis ATCC 29212, Enterococcus faecium ATCC 700221 (a vancomycin-resistant enterococcus, VRE), Bacillus subtilis ATCC 6633, and Escherichia coli ATCC 25922.
(§2) Staphylococcus aureus NRS384 was obtained from NARSA (Network on Antimicrobial Resistance in Staphylococcus aureus, now the strain collection is in BEI resources). Other bacterial isolates were from ATCC (The American Type Culture Collection). Upon receiving the bacteria samples from aforementioned institutes, the bacteria were cultured according to the manuals provided by the suppliers. The bacteria were stored in 25% glycerol (final concentration) at −80° C.
(§3) On the day of testing, the compounds were dissolved in pure DMSO (Sigma 276855-1L) to […] as stock. In a v-bottom 96-well plate (Axygen-wipp02280), 20 μl DMSO was added into well 2 to well 12 by manual pipetting. Into well 1, 12.8 μL of compound DMSO stock (20 mg/ml) was added and mixed with 27.2 μl DMSO by pipetting. Two fold serial dilutions were performed by transferring and mixing 20 μl of solution from well 1 to well 2, then well 2 to well 3 and so forth until well 11. The well 12 was loaded with 20 μl DMSO without compounds. This was drug ‘mother plate’. From well 1 to well 12, the drug concentrations in the mother plate were […] in DMSO. A multi-pipette was used to perform the serial dilutions. The concentration may be adjusted according to the potency of the compounds. An Echo® Acoustic liquid handling system may be used to replace manual pipetting to make the daughter plates.
(§4) One day prior to the day of MIC testing, bacterial strains were streaked out from −80° C. glycerol stocks onto MHA plates and incubated at 37° C. for 20 hours. Streptococcus pneumoniae was streaked on blood agar and incubated at 37° C. in 5% CO2. The single colonies were picked by using an inoculation loop (Greiner-731175) and suspended into 5 ml sterile saline. The turbidity of the suspension was adjusted to 0.10 (Siemens MicroScan turbidity meter), equal to ˜1.0×10^8 cfu/ml. The bacterial suspension was diluted 200× in corresponding test medium (Table 1). This was used to inoculate daughter plates.
(§5) For preparing u-bottom 96-well ‘daughter plates’ (Costar 3788), an aliquot of 1 μl solution from mother plate was then replicating transferred into the daughter plate using a multi-pipette.
(§6) An aliquot of 99 μl of the bacterial suspension was inoculated into each well of the daughter plates using a multi-pipette. Each well contained ˜5.0×10^5 cfu/ml bacteria, 1% DMSO and serially diluted compounds at 64, 32, 16, 8, 4, 2, 1, 0.5, 0.25, 0.125, 0.0625 and 0 μg/ml from well 1 to well 12 respectively, in 100 μl corresponding test medium.
(§7) The plates were incubated in ambient atmosphere and in a 37° C. incubator for 20 hours.
(§8) Compounds of the present invention were tested for antibacterial activity against a variety of bacterial organism including Bacillus subtilis, Staphylococcus aureus, Enterococcus faecalis, Enterococcus faecium, Streptococcus pneumoniae and Escherichia coli. […] Compounds described in Examples 2, 44, 53, 56, 90, 134, 212, 213, 214, 218, 222, 304, 305, and 307 had MIC of ≤1 μg/ml against S. aureus NRS 384 (MRSA) (μg/ml) and E. faecium ATCC 700221 (VRE) (μg/ml).

[2] = test system: Staphylococcus aureus ATCC 29213 (MSSA); assay: Broth microdilution MIC, S. aureus ATCC 29213 (MSSA); conditions: broth microdilution, 37° C., 20 hours, read-out: MIC S. aureus ATCC 29213 (MSSA)
Excerpt: as §1, §2, §3, §4, §5, §6, §7, §8

[3] = test system: Enterococcus faecalis ATCC 29212; assay: Broth microdilution MIC, E. faecalis ATCC 29212; conditions: ATCC29212, broth microdilution, 37° C., 20 hours, read-out: MIC E. faecalis ATCC 29212
Excerpt: as §1, §2, §3, §4, §5, §6, §7, §8

[4] = test system: Enterococcus faecium ATCC 700221 (VRE); assay: Broth microdilution MIC, E. faecium ATCC 700221 (VRE); conditions: Enterococcus faecium; broth microdilution, 37° C., 20 hours; read-out: MIC E. faecium ATCC 700221 (VRE)
Excerpt: as §1, §2, §3, §4, §5, §6, §7, §8

[5] = test system: Streptococcus pneumoniae ATCC 49619; assay: Broth microdilution MIC, S. pneumoniae ATCC 49619; conditions: ATCC49619, broth microdilution, 37° C., 20 hours, read-out: MIC S. pneumoniae ATCC 49619
Excerpt: as §1, §2, §3, §4, §5, §6, §7, §8

[6] = test system: Bacillus subtilis ATCC 6633; assay: Broth microdilution MIC, B. subtilis ATCC 6633; conditions: ATCC6633, broth microdilution, 37° C., 20 hours, read-out: MIC B. subtilis ATCC 6633
Excerpt: as §1, §2, §3, §4, §5, §6, §7, §8

[7] = test system: Escherichia coli ATCC 25922; assay: Broth microdilution MIC, E. coli ATCC 25922 (MHIIB w & w/o 4 mM EDTA); conditions: broth microdilution, 37° C., 20 hours; for MIC: Escherichia coli, ATCC25922, without EDTA, read-out: MIC E. coli ATCC 25922; for MIC E. coli ATCC 25922 + 4 mM EDTA: with 4 mM EDTA
Excerpt: as §1, §2, §3, §4, §5, §6, §7, §8

Q: What does the source list for `Cn1ncc2nc(Nc3ccccc3)[nH]c(=O)c21` [Compound 10, 1-Methyl-5-(phenylamino)-1H-pyrazolo[4,3-d]pyrimidin-7(6H)-one]?
A: MIC [1]: > 64 µg/mL; MIC [2]: > 64 µg/mL; MIC [3]: > 64 µg/mL; MIC [4]: > 64 µg/mL; MIC [5]: > 64 µg/mL; MIC [6]: > 64 µg/mL; MIC [7]: > 64 µg/mL; MIC E. coli ATCC 25922 + 4 mM EDTA [7]: >64 µg/mL

Q: Which results are given for `Cn1ncc2nc(NCc3ncccn3)[nH]c(=O)c21` [Compound 11, 1-Methyl-5-((pyrimidin-2-ylmethyl)amino)-1H-pyrazolo[4,3-d]pyrimidin-7(6H)-one]?
A: MIC [1]: > 64 µg/mL; MIC [2]: > 64 µg/mL; MIC [3]: > 64 µg/mL; MIC [4]: > 64 µg/mL; MIC [5]: > 64 µg/mL; MIC [6]: > 64 µg/mL; MIC [7]: > 64 µg/mL; MIC E. coli ATCC 25922 + 4 mM EDTA [7]: >64 µg/mL

Q: How did the MIC [1] turn out when `Cn1ncc2nc(NCc3cnccn3)[nH]c(=O)c21` [Compound 12, 1-Methyl-5-((pyrazin-2-ylmethyl)amino)-1H-pyrazolo[4,3-d]pyrimidin-7(6H)-one] was run?
A: > 64 µg/mL

Q: What about the MIC [2] of the same compound?
A: > 64 µg/mL

Q: And the MIC [3]?
A: > 64 µg/mL

Q: And the MIC [4]?
A: > 64 µg/mL

Q: And the MIC [5]?
A: > 64 µg/mL

Q: And the MIC [6]?
A: > 64 µg/mL

Q: And the MIC [7]?
A: > 64 µg/mL

Q: What about the “MIC E. coli ATCC 25922 + 4 mM EDTA” value [7] of the same compound?
A: >64 µg/mL

Q: For `Cn1ncc2nc(NCc3ccc4[nH]ncc4c3)[nH]c(=O)c21` [Compound 13, 5-(((1H-indazol-5-yl)methyl)amino)-1-methyl-1H-pyrazolo[4,3-d]pyrimidin-7(6H)-one], which MIC [1] is on record?
A: > 64 µg/mL

Q: What about the MIC [2] of the same compound?
A: > 64 µg/mL

Q: What about the MIC [3] of the same compound?
A: > 64 µg/mL

Q: And the MIC [4]?
A: > 64 µg/mL

Q: What about the MIC [5] of the same compound?
A: > 64 µg/mL

Q: And the MIC [6]?
A: > 64 µg/mL

Q: And the MIC [7]?
A: > 64 µg/mL

Q: What about the “MIC E. coli ATCC 25922 + 4 mM EDTA” value [7] of the same compound?
A: >64 µg/mL

Q: Which results are given for `Cn1ncc2nc(NCc3ccc4[nH]ccc4c3)[nH]c(=O)c21` [Compound 14, 5-(((1H-indol-5-yl)methyl)amino)-1-methyl-1H-pyrazolo[4,3-d]pyrimidin-7(6H)-one]?
A: MIC [1]: > 64 µg/mL; MIC [2]: > 64 µg/mL; MIC [3]: > 64 µg/mL; MIC [4]: > 64 µg/mL; MIC [5]: > 64 µg/mL; MIC [6]: > 64 µg/mL; MIC [7]: > 64 µg/mL; MIC E. coli ATCC 25922 + 4 mM EDTA [7]: >64 µg/mL

Q: `Cn1ncc2nc(NCc3cscn3)[nH]c(=O)c21` [Compound 15, 1-Methyl-5-((thiazol-4-ylmethyl)amino)-1H-pyrazolo[4,3-d]pyrimidin-7(6H)-one] was tested. Which MIC [1] did it give?
A: > 64 µg/mL

Q: What about the MIC [2] of the same compound?
A: > 64 µg/mL

Q: What about the MIC [3] of the same compound?
A: > 64 µg/mL

Q: What about the MIC [4] of the same compound?
A: > 64 µg/mL

Q: What about the MIC [5] of the same compound?
A: > 64 µg/mL

Q: And the MIC [6]?
A: > 64 µg/mL

Q: What about the MIC [7] of the same compound?
A: > 64 µg/mL

Q: What about the “MIC E. coli ATCC 25922 + 4 mM EDTA” value [7] of the same compound?
A: >64 µg/mL

Q: Which results are given for `Cn1ncc2nc(NCc3cc[nH]n3)[nH]c(=O)c21` [Compound 16, 5-(((1H-pyrazol-3-yl)methyl)amino)-1-methyl-1H-pyrazolo[4,3-d]pyrimidin-7(6H)-one]?
A: MIC [1]: > 64 µg/mL; MIC [2]: > 64 µg/mL; MIC [3]: > 64 µg/mL; MIC [4]: > 64 µg/mL; MIC [5]: > 64 µg/mL; MIC [6]: > 64 µg/mL; MIC [7]: > 64 µg/mL; MIC E. coli ATCC 25922 + 4 mM EDTA [7]: >64 µg/mL

Q: `Cn1ncc2nc(NCc3cn[nH]n3)[nH]c(=O)c21` [Compound 17, 5-(((2H-1,2,3-triazol-4-yl)methyl)amino)-1-methyl-1H-pyrazolo[4,3-d]pyrimidin-7(6H)-one] was tested. Which MIC [1] did it give?
A: > 64 µg/mL

Q: And the MIC [2]?
A: > 64 µg/mL

Q: What about the MIC [3] of the same compound?
A: > 64 µg/mL

Q: What about the MIC [4] of the same compound?
A: > 64 µg/mL

Q: And the MIC [5]?
A: > 64 µg/mL

Q: And the MIC [6]?
A: > 64 µg/mL

Q: What about the MIC [7] of the same compound?
A: > 64 µg/mL

Q: What about the “MIC E. coli ATCC 25922 + 4 mM EDTA” value [7] of the same compound?
A: >64 µg/mL
